Earlier results in patent publication US20060292225A1, “WATER SOLUBLE ANALGESIC FORMULATIONS AND METHODS FOR PRODUCTION” (priority 2005, published 2006).
Read-outs that look alike come from different tables or passages of the source.

What was measured:
[1] = test system: arthritis inflammation
[2] = aqueous, hydrolysis

pH of maximum stability [2]: 2.4
SMILES: CC(=O)Oc1ccccc1C(=O)O [aspirin, Acetylsalicylic acid]
incidence of side effects (nausea, gastric upset, pain) (higher anti-inflammatory dosages): about 25%
incidence of side effects (nausea, gastric upset, pain) (low analgesic dose levels, adult users): 2-10%
rate of successful treatment ([1]; daily dosage 2500 mg): less than 10%
rate of successful treatment ([1]; daily dosages of 4,000 to 5,000 mg or greater): over 70%
